Source: patent US10869924B2, “PD-L1 antagonist combination treatments” (MERCK PATENT GMBH, priority 2015, dated 2020)

How the values were obtained:
MC38 colon carcinoma = experiment: Subcutaneous MC38 colon carcinoma model, avelumab, anti-4-1BB and anti-M-CSF (Example 5); assay type: in vivo, mouse; conditions: anti-4-1BB 1 mg/kg, anti-M-CSF 15 mg/kg, Avelumab 10 mg/kg, ip, 3 doses 3 to 4 days apart, C57BL/6 mice
Procedure: (§1) Six (6)- to 8-week old female C57BL/6 mice were purchased from the Jackson Laboratories. All animals were housed in a pathogen free vivarium facility at Rinat and experiments were conducted according to the protocols in accordance with the Institutional Animal Care and Use Committee (IACUC) guidelines.
The MC38 colon carcinoma cell line was kindly provided by Dr. Antoni Ribas at University of California, Los Angeles, Calif. Cells were cultured in Dulbecco's Modified Eagle's Medium (DMEM) supplemented with 10% fetal bovine serum (FBS), 2 mM L glutamine at 37° C. in 5% carbon dioxide (CO2), and IMPACT-tested for pathogens at Research Animal Diagnostic Laboratory (RADIL) (Columbia, Mo.). Pathogen-free cells growing in an exponential growth phase were harvested and used for tumor inoculation.
Therapeutic mouse anti-mouse 4-1BB mAb (mouse immunoglobulin G1 [mIgG1]), derived from the parental clone MAB9371 (R&D Systems), was prepared in-house. Avelumab was provided by Merck Serono. Rat anti-mouse M-CSF (clone 5A1), rat IgG1 (clone HRPN) and mIgG1 (clone: MOPC-21) isotype controls were purchased from BioXcell. Human IgG1 isotype was prepared in-house. Anti-4-1BB, avelumab and anti-M-CSF mAbs were diluted to concentrations of 0.1 mg/mL and 1 mg/mL, and 1.5 mg/mL, respectively, in phosphate buffered saline (PBS) (Life Technologies), and dosed at 0.2 mL per mouse intraperitoneally (ip) for 3 doses 3 to 4 days apart.
C57BL/6 mice were inoculated subcutaneously at the right flank with 0.5-1×10^6 MC38 cells in 0.1 mL of DMEM. When tumors reached an average of ˜60 mm^3 (range 41-93 mm^3), mice were randomized into groups of 10 animals per group, and treatment was started at the same day. Tumor size was measured in two dimensions using a caliper, and the volume was expressed in mm^3 using the formula: V=0.5 L×W^2 where L and W are the long and short diameters of the tumor, respectively. Body weight was recorded weekly.
Results were expressed as mean±SEM (Table 8). Statistical analyses were performed using GraphPad Prism 6.0. One-way or two-way ANOVA was applied to compare the statistical differences among multiple groups relative to isotype controls. P<0.05 was considered as significant difference.

B16F10 melanoma = experiment: Subcutaneous B16F10 melanoma model, avelumab, anti-4-1BB and anti-OX40 (Example 6); assay type: in vivo, mouse; conditions: anti-OX40 3 mg/kg, anti-4-1BB 1 mg/kg, avelumab 20 mg/kg, ip, 3 doses 3 to 4 days apart, C57BL/6 mice
Procedure: as §1, with “Two murine models were used to evaluate the therapeutic efficacy of combinatorial treatment of anti-OX40 antibody, anti-4-1 BB and Avelumab. Six” for “Six”, “C57BL/6 mice or Balb/C” for “C57BL/6”
The B16F10 melanoma cell line was purchased from American Type Culture Collection (ATCC). The MC38 colon carcinoma cell line was kindly provided by Dr. Antoni Ribas at University of California, Los Angeles, Calif. Cells were cultured in Dulbecco's Modified Eagle's Medium (DMEM) supplemented with 10% fetal bovine serum (FBS), 2 mM L-glutamine at 37° C. in 5% carbon dioxide (CO2). Cells growing in an exponential growth phase were harvested and used for tumor inoculation.
Therapeutic mouse anti-OX40 antibodies with either the mIgG1 or the mIgG2a isotype (anti-OX40 mIgG1 and anti-OX40 mIgG2a, respectively) were derived from parental clone OX86 in house. Therapeutic mouse anti-mouse 4-1BB antibody (mouse immunoglobulin G1 [mIgG1]), derived from the parental clone MAB9371 (R&D Systems), was prepared in-house. Avelumab was provided by Merck Serono. Isotype control mIgG1 (clone: MOPC-21) and mIgG2a (C1.18.4) was purchased from BioXcell. Human IgG1 was prepared in-house. Anti-OX40 antibody, anti-4-1BB antibody, and avelumab were dosed at 3 mg/kg, 1 mg/kg and 20 mg/kg in the B16F10 model and 1 mg/kg, 1 mg/kg and 10 mg/kg in the MC38 model, respectively, in phosphate buffered saline (PBS) (Life Technologies), and dosed at 0.2 mL per mouse intraperitoneally (ip) for 3 doses 3 to 4 days apart.
C57BL/6 mice were inoculated subcutaneously at the right flank with 0.3×10^6 B16F10 cells in 0.1 mL of PBS. Balb/C mice were inoculated subcutaneously at the right flank with 0.5×10^6 MC38 cells in 0.1 mL of PBS. When tumors reached target size, mice were randomized into treatment groups. Treatment was started on the same day as randomization. Tumor size was measured twice weekly in 2 dimensions using a caliper, and the volume was calculated in cubic millimeters using the formula: V=0.5 L×W^2 where L is the longest diameter of the tumor and W is the diameter perpendicular to L. Body weight was recorded weekly.
Results are summarized in Table 9 (B16F10 melanoma) and Table 10 (MC38 colon carcinoma) below (mean tumor size±SEM). Statistical analyses were performed using GraphPad Prism 6.0. 2-way ANOVA was applied to compare the statistical differences among multiple groups relative to the isotype control or other treatment groups. P<0.05 was considered as significant difference. Tumor measurements are in mm^3.

Avelumab: fully human mAb of the IgG1 isotype that specifically targets and blocks PD-L1
Mean Tumor Size (MC38 colon carcinoma; Day 7 post-tumor inoculation (start of treatment)): 63 mm^3
Mean Tumor Size (MC38 colon carcinoma; Day 10 post-tumor inoculation): 127 mm^3
Mean Tumor Size (MC38 colon carcinoma; Day 14 post-tumor inoculation): 254 mm^3
Mean Tumor Size (MC38 colon carcinoma; Day 16 post-tumor inoculation): 384 mm^3
Mean Tumor Size (MC38 colon carcinoma; Day 18 post-tumor inoculation): 523 mm^3
Mean Tumor Size (MC38 colon carcinoma; Day 21 post-tumor inoculation): 714 mm^3
Mean Tumor Size (MC38 colon carcinoma; Day 23 post-tumor inoculation): 901 mm^3
Mean Tumor Size (B16F10 melanoma; Day 12 post-tumor inoculation (start of treatment)): 77 mm^3
Mean Tumor Size (B16F10 melanoma; Day 15 post-tumor inoculation): 236 mm^3
Mean Tumor Size (B16F10 melanoma; Day 18 post-tumor inoculation): 396 mm^3
Mean Tumor Size (B16F10 melanoma; Day 22 post-tumor inoculation): 750 mm^3
Mean Tumor Size (B16F10 melanoma; Day 25 post-tumor inoculation): 1291 mm^3
Mean Tumor Size (B16F10 melanoma; Day 29 post-tumor inoculation): 2159 mm^3
Mean Tumor Size (B16F10 melanoma; Day 32 post-tumor inoculation): 2352 mm^3
Mean Tumor Size (B16F10 melanoma; Day 32 post-tumor inoculation, listed as avelumab): 2352±264 mm^3
